According to patent publication US20020137929A1, “1 - (3-heterocyclylphenyl) isothiourea, -isourea, -guanidine and -amidine herbicidal agents” (Intellectual Property Department, BASF Aktiengesellschaft, priority 1998, published 2002):

Experiments:
[1] = test system: AMBEL (Ragweed, Common); test: Postemergence herbicidal evaluation; assay type: in vivo, Ambrosia artemisifolia
Method in brief: (§1)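 ~2-wk seedlings; postemergence spray, 40 psi; vehicle 1:1 acetone:water + 0.5% Tween 20; rate ≈0.0156–0.500 kg/ha; greenhouse hold; scored 4–5 wk after treatment, 0–9 scale vs control; repeat tests averaged.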

[2] = test system: CASOB (Sicklepod); test: Postemergence herbicidal evaluation; assay type: in vivo, Cassia obtusifolia
Method in brief: as §1

[3] = test system: GALAP (Galium); test: Postemergence herbicidal evaluation; assay type: in vivo, Galium aparine
Method in brief: as §1

[4] = test system: IPOHE (Morningglory, Ivyleaf); test: Postemergence herbicidal evaluation; assay type: in vivo, Ipomoea hederacea
Method in brief: as §1

[5] = test system: ABUTH (Velvetleaf); test: Preemergence herbicidal evaluation; assay type: in vivo, Abutilon theophrasti; details: rated 4-5 weeks after treatment
Method in brief: (§2)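 Seeds were mixed with potting soil and planted on about one inch of soil, then sprayed with test compound in aqueous acetone at about 0.0156 to 0.500 kg per hectare. Plants grew under standard greenhouse care and were visually rated 0-9 against untreated controls 4-5 weeks post-treatment.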

[6] = test system: CASOB (Sicklepod); test: Preemergence herbicidal evaluation; assay type: in vivo, Cassia obtusifolia; details: rated 4-5 weeks after treatment
Method in brief: as §2

[7] = test system: IPOHE (Morningglory, Ivyleaf); test: Preemergence herbicidal evaluation; assay type: in vivo, Ipomoea hederacea; details: rated 4-5 weeks after treatment
Method in brief: as §2

[8] = test system: ECHCG (Barnyardgrass); test: Preemergence herbicidal evaluation; assay type: in vivo, Echinochloa crus-galli; details: rated 4-5 weeks after treatment
Method in brief: as §2

[9] = test system: GLXMAW (Soybean, Williams); test: Preemergence herbicidal evaluation; assay type: in vivo, Glycine max, (L.) Merr. cv Williams; details: rated 4-5 weeks after treatment
Method in brief: as §2

[10] = test system: TRZAWR (Wheat, Winter, cv Riband); test: Preemergence herbicidal evaluation; assay type: in vivo, Triticum aestivum; details: rated 4-5 weeks after treatment
Method in brief: as §2

[11] = test system: ZEAMX (Corn, Field); test: Preemergence herbicidal evaluation; assay type: in vivo, Zea mays; details: rated 4-5 weeks after treatment
Method in brief: as §2

[12] = test system: SAGPY (Arrowhead (Pygmaea)); test: Preemergence weed control under flooded paddy conditions; assay type: in vivo, Sagittaria pygmaea; details: rated 3-4 weeks after treatment
Method in brief: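 Visual injury scored 0-9 against control three to four weeks post-treatment, greenhouse-grown. Application: acetone/water (50/50) solutions dosed directly into flood water (1.5-3 cm over silt loam, planted top 0.5 cm), roughly 0.0313 to 0.500 kg/ha active ingredient.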

[13] = test system: CYPIR (Rice Flatsedge); test: Postemergence weed control under flooded paddy conditions; assay type: in vivo, Cyperus iria; details: postemergence weeds, 3-4 weeks after treatment
Method in brief: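 Weeds 3 to 5 cm tall and rice seedlings at the 1.5 to 2.5 leaf stage were flooded, with water held 1.5 to 3 cm above the soil. Compounds in 50/50 v/v aqueous/acetone went into the flood water at about 0.0313 to 0.500 kg/ha. Visual 0-9 ratings versus control were made 3 to 4 weeks later.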

CCOC(=O)CN1C(=O)C(CC(=O)O)SC1=Nc1cc(-n2c(=O)cc(C(F)(F)F)n(C)c2=O)c(Cl)cc1Cl (centres unmarked) [Compound 33, 2-{{2,4-Dichloro-5-[3,6-dihydro-3-methyl-2,6-dioxo-4-(trifluoromethyl)-1(2H)-pyrimidinyl]phenyl}-imino}-4-oxo-3,5-thiazolidinediacetic acid, 3-ethyl ester]
3.0: Postemergence herbicidal rating GALAP ([3]; Rate 0.0158 kg/ha)
1.0: Postemergence herbicidal rating CASOB ([2]; Rate 0.0315 kg/ha)
5.0: Postemergence herbicidal rating CASOB ([2]; Rate 0.0630 kg/ha) | Postemergence herbicidal rating GALAP ([3]; Rate 0.0630 kg/ha)
9.0: Postemergence herbicidal rating AMBEL ([1]; Rate 0.0158 kg/ha) | Postemergence herbicidal rating AMBEL ([1]; Rate 0.0315 kg/ha) | Postemergence herbicidal rating AMBEL ([1]; Rate 0.0630 kg/ha) | Postemergence herbicidal rating IPOHE ([4]; Rate 0.0158 kg/ha) | Postemergence herbicidal rating IPOHE ([4]; Rate 0.0315 kg/ha) | Postemergence herbicidal rating IPOHE ([4]; Rate 0.0630 kg/ha) | Preemergence herbicidal rating ABUTH ([5]; rate 0.0625 kg/ha) | Preemergence herbicidal rating ABUTH ([5]; rate 0.1250 kg/ha) | Preemergence herbicidal rating ABUTH ([5]; rate 0.2500 kg/ha) | Preemergence herbicidal rating CASOB ([6]; rate 0.2500 kg/ha) | Preemergence herbicidal rating IPOHE ([7]; rate 0.2500 kg/ha)
0.0: Postemergence herbicidal rating CASOB ([2]; Rate 0.0158 kg/ha) | Preemergence herbicidal rating ABUTH ([5]; rate 0.0156 kg/ha) | Preemergence herbicidal rating ABUTH ([5]; rate 0.0313 kg/ha) | Preemergence herbicidal rating CASOB ([6]; rate 0.0156 kg/ha) | Preemergence herbicidal rating CASOB ([6]; rate 0.0313 kg/ha) | Preemergence herbicidal rating CASOB ([6]; rate 0.0625 kg/ha) | Preemergence herbicidal rating IPOHE ([7]; rate 0.0156 kg/ha) | Preemergence herbicidal rating IPOHE ([7]; rate 0.0313 kg/ha) | Preemergence herbicidal rating IPOHE ([7]; rate 0.0625 kg/ha) | Preemergence herbicidal rating IPOHE ([7]; rate 0.1250 kg/ha) | Preemergence herbicidal rating ECHCG ([8]; rate 0.0156 kg/ha) | Preemergence herbicidal rating ECHCG ([8]; rate 0.0313 kg/ha) | Preemergence herbicidal rating ECHCG ([8]; rate 0.0625 kg/ha) | Preemergence herbicidal rating ECHCG ([8]; rate 0.1250 kg/ha) | Preemergence herbicidal rating ECHCG ([8]; rate 0.2500 kg/ha) | Preemergence herbicidal rating GLXMAW ([9]; rate 0.0156 kg/ha) | Preemergence herbicidal rating GLXMAW ([9]; rate 0.0313 kg/ha) | Preemergence herbicidal rating GLXMAW ([9]; rate 0.0625 kg/ha) | Preemergence herbicidal rating GLXMAW ([9]; rate 0.1250 kg/ha) | Preemergence herbicidal rating GLXMAW ([9]; rate 0.2500 kg/ha) | Preemergence herbicidal rating TRZAWR ([10]; rate 0.0156 kg/ha) | Preemergence herbicidal rating TRZAWR ([10]; rate 0.0313 kg/ha) | Preemergence herbicidal rating TRZAWR ([10]; rate 0.0625 kg/ha) | Preemergence herbicidal rating TRZAWR ([10]; rate 0.1250 kg/ha) | Preemergence herbicidal rating TRZAWR ([10]; rate 0.2500 kg/ha) | Preemergence herbicidal rating ZEAMX ([11]; rate 0.0156 kg/ha) | Preemergence herbicidal rating ZEAMX ([11]; rate 0.0313 kg/ha) | Preemergence herbicidal rating ZEAMX ([11]; rate 0.0625 kg/ha) | Preemergence herbicidal rating ZEAMX ([11]; rate 0.1250 kg/ha) | Preemergence herbicidal rating ZEAMX ([11]; rate 0.2500 kg/ha) | Herbicidal rating SAGPY ([12]; 0.2500 kg/ha) | Herbicidal rating CYPIR ([13]; rate 0.2500 kg/ha)
4.0: Postemergence herbicidal rating GALAP ([3]; Rate 0.0315 kg/ha) | Preemergence herbicidal rating CASOB ([6]; rate 0.1250 kg/ha)

CCOC(=O)CN1C(=O)C(Cc2ccccc2OC)SC1=Nc1cc(-n2c(=O)cc(C(F)(F)F)n(C)c2=O)c(F)cc1Cl (centres unmarked) [Compound 37, Ethyl 2-{{2-chloro-5-[3,6-dihydro-3-methyl-2,6-dioxo-4-(trifluoromethyl)-1(2H)-pyrimidinyl]-4-fluorophenyl}imino}-5-(o-methoxybenzyl)-4-oxo-3-thiazolidineacetate]
0.0: Postemergence herbicidal rating CASOB ([2]; Rate 0.0158 kg/ha) | Postemergence herbicidal rating CASOB ([2]; Rate 0.0315 kg/ha) | Postemergence herbicidal rating CASOB ([2]; Rate 0.0630 kg/ha) | Preemergence herbicidal rating ABUTH ([5]; rate 0.1250 kg/ha) | Preemergence herbicidal rating CASOB ([6]; rate 0.1250 kg/ha) | Preemergence herbicidal rating CASOB ([6]; rate 0.2500 kg/ha) | Preemergence herbicidal rating IPOHE ([7]; rate 0.1250 kg/ha) | Preemergence herbicidal rating IPOHE ([7]; rate 0.2500 kg/ha) | Preemergence herbicidal rating ECHCG ([8]; rate 0.1250 kg/ha) | Preemergence herbicidal rating ECHCG ([8]; rate 0.2500 kg/ha) | Preemergence herbicidal rating GLXMAW ([9]; rate 0.1250 kg/ha) | Preemergence herbicidal rating GLXMAW ([9]; rate 0.2500 kg/ha) | Preemergence herbicidal rating TRZAWR ([10]; rate 0.1250 kg/ha) | Preemergence herbicidal rating TRZAWR ([10]; rate 0.2500 kg/ha) | Preemergence herbicidal rating ZEAMX ([11]; rate 0.1250 kg/ha) | Preemergence herbicidal rating ZEAMX ([11]; rate 0.2500 kg/ha) | Herbicidal rating SAGPY ([12]; 0.0313 kg/ha) | Herbicidal rating SAGPY ([12]; 0.0625 kg/ha) | Herbicidal rating SAGPY ([12]; 0.1250 kg/ha) | Herbicidal rating CYPIR ([13]; rate 0.0313 kg/ha) | Herbicidal rating CYPIR ([13]; rate 0.0625 kg/ha) | Herbicidal rating CYPIR ([13]; rate 0.1250 kg/ha) | Herbicidal rating CYPIR ([13]; rate 0.2500 kg/ha)
9.0: Postemergence herbicidal rating AMBEL ([1]; Rate 0.0315 kg/ha) | Postemergence herbicidal rating AMBEL ([1]; Rate 0.0630 kg/ha) | Postemergence herbicidal rating IPOHE ([4]; Rate 0.0158 kg/ha) | Postemergence herbicidal rating IPOHE ([4]; Rate 0.0315 kg/ha) | Postemergence herbicidal rating IPOHE ([4]; Rate 0.0630 kg/ha)
3.0: Postemergence herbicidal rating AMBEL ([1]; Rate 0.0158 kg/ha) | Postemergence herbicidal rating GALAP ([3]; Rate 0.0315 kg/ha) | Preemergence herbicidal rating ABUTH ([5]; rate 0.2500 kg/ha) | Herbicidal rating SAGPY ([12]; 0.2500 kg/ha)
1.0: Postemergence herbicidal rating GALAP ([3]; Rate 0.0158 kg/ha)
4.0: Postemergence herbicidal rating GALAP ([3]; Rate 0.0630 kg/ha)
